Experiments:
[1] = target: Human immunodeficiency virus type 1 protease (Human immunodeficiency virus 1) (UniProt Q72874); test: Second order rate constant was determined for the irreversible inhibition of HIV-1 protease; value ranges from 10e8- 10e10
[2] = target: Human immunodeficiency virus type 1 protease (Human immunodeficiency virus 1, UniProt Q72874); test: Compound was tested for 50% irreversible inhibition of HIV-1 protease; value ranges from 10-50

Row | Structure (SMILES) | K inact/Ki [1] [M⁻¹ s⁻¹] | IC50 [2] [nM]
1 | CONC(=O)[C@H](NC(=O)C[C@@H]1O[C@@H]1[C@H](Cc1ccccc1)NC(=O)[C@H](CC(N)=O)NC(=O)c1ccc2ccccc2n1)C(C)C | 1.67e+06 | 10
2 | CC(C)[C@H](Cc1ccccc1)NC(=O)C[C@@H]1O[C@@H]1[C@H](Cc1ccccc1)NC(=O)[C@H](CC(N)=O)NC(=O)c1ccc2ccccc2n1 | 1.67e+06 | 10
3 | CC(C)[C@@H](NC(=O)C[C@@H]1O[C@@H]1[C@H](Cc1ccccc1)NC(=O)[C@H](CC(N)=O)NC(=O)c1ccc2ccccc2n1)c1ccccc1 | 1.67e+06 | 10

— ChEMBL document CHEMBL1130952, “NMR and topochemical studies of peptidomimetic HIV-I protease inhibitors containing a cis-epoxide amide isostere” (Bioorg Med Chem Lett, 1998)
